Laboratory results published in ChEMBL document CHEMBL3045892, “Synthesis and evaluation of in vitro antimicrobial activity of novel 2,3-disubstituted-4-thiazolidinones from fatty acid hydrazides” (2013).
Values after ≈ are worked out from the molar mass of the structure shown.

Columns and labels:
Format in all cases: functional
Talaromyces marneffei [1] = test: Antifungal activity against Talaromyces marneffei incubated for 48 hr followed by subculturing measured after 48 hr
Aspergillus fumigatus [2] = test: Antifungal activity against Aspergillus fumigatus by disk diffusion method
[3] = tested on: Trichophyton mentagrophytes; test: Antifungal activity against Trichophyton mentagrophytes after 48 hr
Streptococcus pyogenes [4] = test: Antibacterial activity against Streptococcus pyogenes after 24 hr by broth dilution method
Candida albicans [5] = test: Antifungal activity against Candida albicans incubated for 48 hr followed by subculturing measured after 48 hr
Streptococcus pyogenes [6] = test: Antibacterial activity against Streptococcus pyogenes after 24 hr by disk diffusion method
Escherichia coli [7] = test: Antibacterial activity against Escherichia coli ATCC 25922 after 24 hr by disk diffusion method
Aspergillus fumigatus [8] = test: Antifungal activity against Aspergillus fumigatus incubated for 48 hr followed by subculturing measured after 48 hr
Pseudomonas aeruginosa [9] = test: Antibacterial activity against Pseudomonas aeruginosa ATCC 27853 incubated for 24 hr followed by subculturing measured after 18 to 24 hr
Klebsiella pneumoniae [10] = test: Antibacterial activity against Klebsiella pneumoniae clinical isolate incubated for 24 hr followed by subculturing measured after 18 to 24 hr
Escherichia coli [11] = test: Antibacterial activity against Escherichia coli ATCC 25922 after 24 hr by broth dilution method; conditions: ATCC 25922, 24 h
[12] = tested on: Trichophyton mentagrophytes; test: Antifungal activity against Trichophyton mentagrophytes by disk diffusion method
Aspergillus fumigatus [13] = test: Antifungal activity against Aspergillus fumigatus after 48 hr
Pseudomonas aeruginosa [14] = test: Antibacterial activity against Pseudomonas aeruginosa ATCC 27853 after 24 hr by broth dilution method; conditions: ATCC 27853, 24 h
Pseudomonas aeruginosa [15] = test: Antibacterial activity against Pseudomonas aeruginosa ATCC 27853 after 24 hr by disk diffusion method
Candida albicans [16] = test: Antifungal activity against Candida albicans by disk diffusion method
Streptococcus pyogenes [17] = test: Antibacterial activity against Streptococcus pyogenes incubated for 24 hr followed by subculturing measured after 18 to 24 hr
[18] = tested on: Trichophyton mentagrophytes; test: Antifungal activity against Trichophyton mentagrophytes incubated for 48 hr followed by subculturing measured after 48 hr
Talaromyces marneffei [19] = test: Antifungal activity against Talaromyces marneffei after 48 hr
Escherichia coli [20] = test: Antibacterial activity against Escherichia coli ATCC 25922 incubated for 24 hr followed by subculturing measured after 18 to 24 hr
Klebsiella pneumoniae [21] = test: Antibacterial activity against Klebsiella pneumoniae clinical isolate after 24 hr by broth dilution method
Klebsiella pneumoniae [22] = test: Antibacterial activity against Klebsiella pneumoniae clinical isolate after 24 hr by disk diffusion method
Candida albicans [23] = test: Antifungal activity against Candida albicans after 48 hr
Talaromyces marneffei [24] = test: Antifungal activity against Talaromyces marneffei by disk diffusion method
Streptococcus pyogenes [25] = test: Antibacterial activity against Streptococcus pyogenes at 30 ug/disk after 24 hr by disk diffusion method; conditions: read-out: DIZ
Klebsiella pneumoniae [26] = test: Antibacterial activity against Klebsiella pneumoniae clinical isolate at 30 ug/disk after 24 hr by disk diffusion method; conditions: read-out: DIZ
Escherichia coli [27] = test: Antibacterial activity against Escherichia coli ATCC 25922 at 30 uig/disk after 24 hr by disk diffusion method
Staphylococcus aureus [28] = test: Antibacterial activity against methicillin-resistant Staphylococcus aureus at 30 ug/disk after 24 hr by disk diffusion method; conditions: read-out: DIZ
Staphylococcus aureus [29] = test: Antibacterial activity against methicillin-resistant Staphylococcus aureus incubated for 24 hr followed by subculturing measured after 18 to 24 hr
Staphylococcus aureus [30] = test: Antibacterial activity against methicillin-resistant Staphylococcus aureus after 24 hr by broth dilution method
Pseudomonas aeruginosa [31] = test: Antibacterial activity against Pseudomonas aeruginosa ATCC 27853 at 30 ug/disk after 24 hr by disk diffusion method; conditions: ATCC 27853, 24 h, read-out: DIZ

| MIC [3] [µg/mL] | MIC (Streptococcus pyogenes [4]) [µg/mL] | MIC (Escherichia coli [11]) [µg/mL] | MIC (Aspergillus fumigatus [13]) [µg/mL] | MIC (Pseudomonas aeruginosa [14]) [µg/mL] | MIC (Talaromyces marneffei [19]) [µg/mL] | MIC (Klebsiella pneumoniae [21]) [µg/mL] | MIC (Candida albicans [23]) [µg/mL] | Compound | MFC (Talaromyces marneffei [1]) [µg/mL] | diameter of the inhibition zone (DIZ) (Aspergillus fumigatus [2]) [mm] | MFC (Candida albicans [5]) [µg/mL] | MFC (Aspergillus fumigatus [8]) [µg/mL] | MBC (Pseudomonas aeruginosa [9]) [µg/mL] | MBC (Klebsiella pneumoniae [10]) [µg/mL] | diameter of the inhibition zone (DIZ) [12] [mm] | diameter of the inhibition zone (DIZ) (Candida albicans [16]) [mm] | MBC (Streptococcus pyogenes [17]) [µg/mL] | MFC [18] [µg/mL] | MBC (Escherichia coli [20]) [µg/mL] | diameter of the inhibition zone (DIZ) (Talaromyces marneffei [24]) [mm] | other results |
| --- | --- | --- | --- | --- | --- | --- | --- | --- | --- | --- | --- | --- | --- | --- | --- | --- | --- | --- | --- | --- | --- |
| 25 (≈ 49.1 µM) | 25 (≈ 49.1 µM) | 50 (≈ 98.2 µM) | 25 (≈ 49.1 µM) | 50 (≈ 98.2 µM) | 25 (≈ 49.1 µM) | 50 (≈ 98.2 µM) | 25 (≈ 49.1 µM) | CCCCC/C=C\CC[C@H](O)CCCCCCCC(=O)NN1C(=O)CSC1c1ccc(Cl)cc1 (some centres not stated) | 100 (≈ 196 µM) | 18.7 | 50 (≈ 98.2 µM) | 100 (≈ 196 µM) | 100 (≈ 196 µM) | > 100 | 14.8 | 21.2 | 100 (≈ 196 µM) | 100 (≈ 196 µM) | 100 (≈ 196 µM) | 13.3 | diameter of the inhibition zone (DIZ) (Streptococcus pyogenes [6]): 15.5 mm; diameter of the inhibition zone (DIZ) (Escherichia coli [7]): 14.3 mm; diameter of the inhibition zone (DIZ) (Pseudomonas aeruginosa [15]): 13.9 mm; diameter of the inhibition zone (DIZ) (Klebsiella pneumoniae [22]): 13.9 mm |
| 25 (≈ 49.1 µM) | 50 (≈ 98.2 µM) | 50 (≈ 98.2 µM) | 25 (≈ 49.1 µM) | 50 (≈ 98.2 µM) | 25 (≈ 49.1 µM) | 25 (≈ 49.1 µM) | 25 (≈ 49.1 µM) | CCCCCC[C@@H](O)C/C=C\CCCCCCCC(=O)NN1C(=O)CSC1c1ccc(Cl)cc1 (some centres not stated) | 100 (≈ 196 µM) | 20.6 | 50 (≈ 98.2 µM) | 50 (≈ 98.2 µM) | 100 (≈ 196 µM) | 100 (≈ 196 µM) | 18.2 | 23.7 | 100 (≈ 196 µM) | 50 (≈ 98.2 µM) | > 100 | 14.4 | diameter of the inhibition zone (DIZ) (Streptococcus pyogenes [6]): 17.1 mm; diameter of the inhibition zone (DIZ) (Escherichia coli [7]): 14.5 mm; diameter of the inhibition zone (DIZ) (Pseudomonas aeruginosa [15]): 14.1 mm; diameter of the inhibition zone (DIZ) (Klebsiella pneumoniae [22]): 14.5 mm |
| 25 (≈ 50.7 µM) | 25 (≈ 50.7 µM) | 25 (≈ 50.7 µM) | 12.5 (≈ 25.3 µM) | 50 (≈ 101 µM) | 25 (≈ 50.7 µM) | 25 (≈ 50.7 µM) | 12.5 (≈ 25.3 µM) | CCCCCCCC/C=C\CCCCCCCC(=O)NN1C(=O)CSC1c1ccc(Cl)cc1 (configuration not stated) | 50 (≈ 101 µM) | 21.4 | 50 (≈ 101 µM) | 50 (≈ 101 µM) | 100 (≈ 203 µM) | 50 (≈ 101 µM) | 17.6 | 24.2 | 100 (≈ 203 µM) | 50 (≈ 101 µM) | 100 (≈ 203 µM) | 14.1 | diameter of the inhibition zone (DIZ) (Streptococcus pyogenes [6]): 18.1 mm; diameter of the inhibition zone (DIZ) (Escherichia coli [7]): 17.6 mm; diameter of the inhibition zone (DIZ) (Pseudomonas aeruginosa [15]): 19.9 mm; diameter of the inhibition zone (DIZ) (Klebsiella pneumoniae [22]): 17.1 mm |
| 6.25 (≈ 13.4 µM) | 12.5 (≈ 26.8 µM) | 12.5 (≈ 26.8 µM) | 6.25 (≈ 13.4 µM) | 12.5 (≈ 26.8 µM) | 12.5 (≈ 26.8 µM) | 12.5 (≈ 26.8 µM) | 6.25 (≈ 13.4 µM) | CCCCCCCCCCCCCCCC(=O)NN1C(=O)CSC1c1ccc(Cl)cc1 (configuration not stated) | 25 (≈ 53.5 µM) | 22.6 | 12.5 (≈ 26.8 µM) | 25 (≈ 53.5 µM) | 25 (≈ 53.5 µM) | 50 (≈ 107 µM) | 19.5 | 27.3 | 25 (≈ 53.5 µM) | 25 (≈ 53.5 µM) | 25 (≈ 53.5 µM) | 15.2 | diameter of the inhibition zone (DIZ) (Streptococcus pyogenes [6]): 20.4 mm; diameter of the inhibition zone (DIZ) (Escherichia coli [7]): 23.3 mm; diameter of the inhibition zone (DIZ) (Pseudomonas aeruginosa [15]): 27.2 mm; diameter of the inhibition zone (DIZ) (Klebsiella pneumoniae [22]): 21.4 mm |
| 12.5 (≈ 31.6 µM) | 25 (≈ 63.3 µM) | 25 (≈ 63.3 µM) | 12.6 (≈ 31.8 µM) | 12.5 (≈ 31.6 µM) | 12.5 (≈ 31.6 µM) | 25 (≈ 63.3 µM) | 12.5 (≈ 31.6 µM) | C=CCCCCCCCCC(=O)NN1C(=O)CSC1c1ccc(Cl)cc1 (configuration not stated) | 25 (≈ 63.3 µM) | 22.2 | 25 (≈ 63.3 µM) | 25 (≈ 63.3 µM) | 25 (≈ 63.3 µM) | 50 (≈ 127 µM) | 19.2 | 27.1 | 50 (≈ 127 µM) | 50 (≈ 127 µM) | 50 (≈ 127 µM) | 14.6 | diameter of the inhibition zone (DIZ) (Streptococcus pyogenes [6]): 20.2 mm; diameter of the inhibition zone (DIZ) (Escherichia coli [7]): 19.8 mm; diameter of the inhibition zone (DIZ) (Pseudomonas aeruginosa [15]): 22.3 mm; diameter of the inhibition zone (DIZ) (Klebsiella pneumoniae [22]): 18.3 mm |
| 6.25 (≈ 17.7 µM) | – | – | 12.5 (≈ 35.4 µM) | – | 12.5 (≈ 35.4 µM) | – | 6.25 (≈ 17.7 µM) | COC1=CC(=O)C[C@@H](C)[C@]12Oc1c(Cl)c(OC)cc(OC)c1C2=O [GRISEOFULVIN] | 25 (≈ 70.9 µM) | 27 | 25 (≈ 70.9 µM) | 12.5 (≈ 35.4 µM) | – | – | 24 | 30 | – | 25 (≈ 70.9 µM) | – | 20 | – |

| Compound | MIC [3] [µg/mL] | MIC (Streptococcus pyogenes [4]) [µg/mL] | MIC (Escherichia coli [11]) [µg/mL] | MIC (Aspergillus fumigatus [13]) [µg/mL] | MIC (Pseudomonas aeruginosa [14]) [µg/mL] | MIC (Talaromyces marneffei [19]) [µg/mL] | MIC (Klebsiella pneumoniae [21]) [µg/mL] | MIC (Candida albicans [23]) [µg/mL] | MFC (Talaromyces marneffei [1]) [µg/mL] | diameter of the inhibition zone (DIZ) (Aspergillus fumigatus [2]) [mm] | MFC (Candida albicans [5]) [µg/mL] | MFC (Aspergillus fumigatus [8]) [µg/mL] | MBC (Pseudomonas aeruginosa [9]) [µg/mL] | MBC (Klebsiella pneumoniae [10]) [µg/mL] | diameter of the inhibition zone (DIZ) [12] [mm] | diameter of the inhibition zone (DIZ) (Candida albicans [16]) [mm] | MBC (Streptococcus pyogenes [17]) [µg/mL] | MFC [18] [µg/mL] | MBC (Escherichia coli [20]) [µg/mL] | diameter of the inhibition zone (DIZ) (Talaromyces marneffei [24]) [mm] | other results |
| --- | --- | --- | --- | --- | --- | --- | --- | --- | --- | --- | --- | --- | --- | --- | --- | --- | --- | --- | --- | --- | --- |
| O=C(N[C@H](CO)[C@H](O)c1ccc([N+](=O)[O-])cc1)C(Cl)Cl [CHLORAMPHENICOL] | – | 12.5 (≈ 38.7 µM) | 6.25 (≈ 19.3 µM) | – | 12.5 (≈ 38.7 µM) | – | 6.25 (≈ 19.3 µM) | – | – | – | – | – | 25 (≈ 77.4 µM) | 25 (≈ 77.4 µM) | – | – | 12.5 (≈ 38.7 µM) | – | 12.5 (≈ 38.7 µM) | – | zone of inhibition at 30 µg/disc (Streptococcus pyogenes [25]): 23 mm; zone of inhibition at 30 µg/disc (Klebsiella pneumoniae [26]): 19 mm; diameter of the inhibition zone (DIZ) (Escherichia coli [27]): 27 mm; zone of inhibition at 30 µg/disc (Staphylococcus aureus [28]): 22 mm; MBC (Staphylococcus aureus [29]): 12.5 µg/mL (≈ 38.7 µM); MIC (Staphylococcus aureus [30]): 6.25 µg/mL (≈ 19.3 µM); zone of inhibition at 30 µg/disc (Pseudomonas aeruginosa [31]): 32 mm |
